In PubChem BioAssay AID1963432 (Molecular Pharmacology Branch, DTP, NCI, 2024):

System: SYO-1 complex spheroid growth, percent test/control
Experiment: Anticancer human tumor SYO-1 cell line growth inhibition [Asc];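 further: compound exposure lasted 7 days after spheroids grew 3 days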;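 on viability, T/C: 100% = DMSO vehicle control viability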
Conditions: for IC50: curve of first compound; for viability, T/C: stronger effect = lower value
In short: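 Concentration series start at each agent's clinical Cmax, or at 10 microM when none is established, and drop in half-log steps; agents are applied alone or together to complex spheroids built with HUVEC and hMSC.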

[1] = second compound 0.01 µM, first compound 0.0316 µM
[2] = second compound 0.01 µM, first compound 0.1 µM
[3] = second compound 0.01 µM, first compound 0.316 µM
[4] = second compound 0.01 µM, first compound 1 µM
[5] = second compound 0.01 µM, first compound 3.16 µM
[6] = second compound 0.01 µM, first compound 10 µM
[7] = second compound 0.0316 µM, first compound 0.0316 µM
[8] = second compound 0.0316 µM, first compound 0.1 µM
[9] = second compound 0.0316 µM, first compound 0.316 µM
[10] = second compound 0.0316 µM, first compound 1 µM
[11] = second compound 0.0316 µM, first compound 3.16 µM
[12] = second compound 0.0316 µM, first compound 10 µM
[13] = second compound 0.1 µM, first compound 0.0316 µM
[14] = second compound 0.1 µM, first compound 0.1 µM
[15] = second compound 0.1 µM, first compound 0.316 µM
[16] = second compound 0.1 µM, first compound 1 µM
[17] = second compound 0.1 µM, first compound 3.16 µM
[18] = second compound 0.1 µM, first compound 10 µM
[19] = second compound 0.316 µM, first compound 0.0316 µM
[20] = second compound 0.316 µM, first compound 0.1 µM
[21] = second compound 0.316 µM, first compound 0.316 µM
[22] = second compound 0.316 µM, first compound 1 µM
[23] = second compound 0.316 µM, first compound 3.16 µM
[24] = second compound 0.316 µM, first compound 10 µM
[25] = second compound 1 µM, first compound 0.0316 µM
[26] = second compound 1 µM, first compound 0.1 µM
[27] = second compound 1 µM, first compound 0.316 µM
[28] = second compound 1 µM, first compound 1 µM
[29] = second compound 1 µM, first compound 3.16 µM
[30] = second compound 1 µM, first compound 10 µM

Compound C#Cc1c(F)ccc2cc(O)cc(-c3ncc4c(N5CC6CCC(C5)N6)nc(OCC56CCCN5CC(F)C6)nc4c3F)c12 (centres undefined) + CNC(C)C(=O)NC1CN(S(=O)(=O)c2cccc(S(=O)(=O)N3CCC4CCC(C(=O)NC(c5ccccc5)c5ccccc5)N4C(=O)C(NC(=O)C(C)NC)C3)c2)CCC2CCC(C(=O)NC(c3ccccc3)c3ccccc3)N2C1=O has an IC50 (second compound 0.00316 µM) greater than 10 µM, an IC50 (second compound 0.01 µM) greater than 10 µM and an IC50 (second compound 0.0316 µM) greater than 10 µM. The IC50 (second compound 0.1 µM) was greater than 10 µM, the IC50 (second compound 0.316 µM) was greater than 10 µM and the IC50 (second compound 1 µM) was greater than 10 µM. For the same compound, the viability, T/C (second compound 0.00316 µM, first compound 0.0316 µM) was 106%, the viability, T/C (second compound 0.00316 µM, first compound 0.1 µM) was 102% and the viability, T/C (second compound 0.00316 µM, first compound 0.316 µM) was 101%. For the same compound, the viability, T/C (second compound 0.00316 µM, first compound 1 µM) was 103%, the viability, T/C (second compound 0.00316 µM, first compound 3.16 µM) was 110% and the viability, T/C (second compound 0.00316 µM, first compound 10 µM) was 106%. It also gave a viability, T/C [1] of 104%, a viability, T/C [2] of 93.3% and a viability, T/C [3] of 102%. The viability, T/C [4] was 108%, the viability, T/C [5] was 112% and the viability, T/C [6] was 105%. The viability, T/C [7] was 96.8%, the viability, T/C [8] was 106% and the viability, T/C [9] was 101%. The viability, T/C [10] was 106%, the viability, T/C [11] was 106% and the viability, T/C [12] was 106%. For the same compound, the viability, T/C [13] was 111%, the viability, T/C [14] was 97.5% and the viability, T/C [15] was 105%. For the same compound, the viability, T/C [16] was 111%, the viability, T/C [17] was 120% and the viability, T/C [18] was 99.6%. The viability, T/C [19] was 98.7%, the viability, T/C [20] was 99.1% and the viability, T/C [21] was 108%. For the same compound, the viability, T/C [22] was 108%, the viability, T/C [23] was 116% and the viability, T/C [24] was 102%. For the same compound, the viability, T/C [25] was 99.7%, the viability, T/C [26] was 106% and the viability, T/C [27] was 106%. The viability, T/C [28] was 103%, the viability, T/C [29] was 106% and the viability, T/C [30] was 105%.
Cc1nc(N2CCC3(CC2)COC(C)C3N)c(CO)nc1Sc1ccnc(N)c1Cl (centres undefined) + CNC(C)C(=O)NC1CN(S(=O)(=O)c2cccc(S(=O)(=O)N3CCC4CCC(C(=O)NC(c5ccccc5)c5ccccc5)N4C(=O)C(NC(=O)C(C)NC)C3)c2)CCC2CCC(C(=O)NC(c3ccccc3)c3ccccc3)N2C1=O showed an IC50 (second compound 0.00316 µM) greater than 3 µM, an IC50 (second compound 0.01 µM) greater than 3 µM and an IC50 (second compound 0.0316 µM) greater than 3 µM. For the same compound, the IC50 (second compound 0.1 µM) was greater than 3 µM, the IC50 (second compound 0.316 µM) was greater than 3 µM and the IC50 (second compound 1 µM) was greater than 3 µM. The viability, T/C (second compound 0.00316 µM, first compound 0.00949 µM) was 107%, the viability, T/C (second compound 0.00316 µM, first compound 0.03 µM) was 105% and the viability, T/C (second compound 0.00316 µM, first compound 0.0949 µM) was 109%. It also gave a viability, T/C (second compound 0.00316 µM, first compound 0.3 µM) of 96.5%, a viability, T/C (second compound 0.00316 µM, first compound 0.949 µM) of 106% and a viability, T/C (second compound 0.00316 µM, first compound 3 µM) of 102%. For the same compound, the viability, T/C (second compound 0.01 µM, first compound 0.00949 µM) was 105%, the viability, T/C (second compound 0.01 µM, first compound 0.03 µM) was 95.8% and the viability, T/C (second compound 0.01 µM, first compound 0.0949 µM) was 101%. The viability, T/C (second compound 0.01 µM, first compound 0.3 µM) was 105%, the viability, T/C (second compound 0.01 µM, first compound 0.949 µM) was 110% and the viability, T/C (second compound 0.01 µM, first compound 3 µM) was 105%. The viability, T/C (second compound 0.0316 µM, first compound 0.00949 µM) was 111%, the viability, T/C (second compound 0.0316 µM, first compound 0.03 µM) was 104% and the viability, T/C (second compound 0.0316 µM, first compound 0.0949 µM) was 102%. For the same compound, the viability, T/C (second compound 0.0316 µM, first compound 0.3 µM) was 106%, the viability, T/C (second compound 0.0316 µM, first compound 0.949 µM) was 115% and the viability, T/C (second compound 0.0316 µM, first compound 3 µM) was 108%. For the same compound, the viability, T/C (second compound 0.1 µM, first compound 0.00949 µM) was 109%, the viability, T/C (second compound 0.1 µM, first compound 0.03 µM) was 103% and the viability, T/C (second compound 0.1 µM, first compound 0.0949 µM) was 104%. It also gave a viability, T/C (second compound 0.1 µM, first compound 0.3 µM) of 116%, a viability, T/C (second compound 0.1 µM, first compound 0.949 µM) of 110% and a viability, T/C (second compound 0.1 µM, first compound 3 µM) of 110%. For the same compound, the viability, T/C (second compound 0.316 µM, first compound 0.00949 µM) was 105%, the viability, T/C (second compound 0.316 µM, first compound 0.03 µM) was 107% and the viability, T/C (second compound 0.316 µM, first compound 0.0949 µM) was 108%. The viability, T/C (second compound 0.316 µM, first compound 0.3 µM) was 107%, the viability, T/C (second compound 0.316 µM, first compound 0.949 µM) was 119% and the viability, T/C (second compound 0.316 µM, first compound 3 µM) was 102%. For the same compound, the viability, T/C (second compound 1 µM, first compound 0.00949 µM) was 103%, the viability, T/C (second compound 1 µM, first compound 0.03 µM) was 109% and the viability, T/C (second compound 1 µM, first compound 0.0949 µM) was 104%. The viability, T/C (second compound 1 µM, first compound 0.3 µM) was 103%, the viability, T/C (second compound 1 µM, first compound 0.949 µM) was 115% and the viability, T/C (second compound 1 µM, first compound 3 µM) was 107%.
O=C(c1cc(Cc2n[nH]c(=O)c3ccccc23)ccc1F)N1CCN(C(=O)C2CC2)CC1 + CNC(C)C(=O)NC1CN(S(=O)(=O)c2cccc(S(=O)(=O)N3CCC4CCC(C(=O)NC(c5ccccc5)c5ccccc5)N4C(=O)C(NC(=O)C(C)NC)C3)c2)CCC2CCC(C(=O)NC(c3ccccc3)c3ccccc3)N2C1=O gave an IC50 (second compound 0.01 µM) of 4.73 µM, an IC50 (second compound 0.0316 µM) of 4.47 µM and an IC50 (second compound 0.1 µM) of 4.37 µM. The IC50 (second compound 0.316 µM) was 4.26 µM, the IC50 (second compound 1 µM) was 3.92 µM and the viability, T/C [1] was 99.8%. The viability, T/C [2] was 95.9%, the viability, T/C [3] was 105% and the viability, T/C [4] was 94.6%. The viability, T/C [5] was 71.9%, the viability, T/C [6] was 9.58% and the viability, T/C [7] was 104%. It also gave a viability, T/C [8] of 96.8%, a viability, T/C [9] of 94.2% and a viability, T/C [10] of 93.6%. It also gave a viability, T/C [11] of 67.5%, a viability, T/C [12] of 8.65% and a viability, T/C [13] of 105%. The viability, T/C [14] was 95.4%, the viability, T/C [15] was 103% and the viability, T/C [16] was 93.5%. It also gave a viability, T/C [17] of 66.3%, a viability, T/C [18] of 8.36% and a viability, T/C [19] of 98.6%. It also gave a viability, T/C [20] of 94.7%, a viability, T/C [21] of 99.8% and a viability, T/C [22] of 96.4%. It also gave a viability, T/C [23] of 65.8%, a viability, T/C [24] of 5.64% and a viability, T/C [25] of 97.4%. For the same compound, the viability, T/C [26] was 102%, the viability, T/C [27] was 90.3% and the viability, T/C [28] was 91.7%. For the same compound, the viability, T/C [29] was 59.9% and the viability, T/C [30] was 5.84%.
